Experiments:
photoreceptors [1] = experiment: TUNEL-positive photoreceptors in ONL after experimental retinal detachment; assay type: in vivo, rat
NF-κB p65 = experiment: Western blot for phospho-NF-κB p65 after retinal detachment; assay type: in vivo
Source text: FIG. 16 is a photograph of an immunoblot from a Western blot analysis for phospho-NFκB p65 in control retina without a retinal detachment and in retina three days after retinal detachment with treatment of vehicle, Z-VAD or Z-VAD+Nec-1 (lane-loading differences were normalized by the level of β-tubulin).
The vitreous and neural retina combined was collected on day 3 after retinal detachment. Samples were run on 4-12% SDS-polyacrylamide gel electrophoresis and transferred onto PVDF membrane. After blocking with 3% nonfat dried milk, the membrane was reacted with RIP-3 (1:10000; Sigma, Saint Louis, […].), RIP-1 (1:2000; BD Biosciences), phosphoserine (1:2000; Enzo, Plymouth Meeting, Pa.) or anti-phosphorylated NF-κB p65 (1:1000; Cell signaling) antibody. Membranes were then developed with enhanced chemiluminescence. Lane-loading differences were normalized by β-tubulin (1:1000; Cell Signaling).
For Western Blot analysis, the vitreous and neural retina combined, were collected at three days after retinal detachment. Samples were run on 4-12% SDS-polyacrylamide gel electrophoresis and transferred onto PVDF membrane. After blocking with 3% nonfat dried milk, the membrane was reacted with anti-light chain 3 antibody (1:1000; Cell signaling), anti-phosphorylated ribosomal protein S6 antibody (1:1000; Cell Signaling) or anti-phosphorylated NF-κB p65 antibody (1:1000; Cell Signaling). […]

photoreceptors [2] = experiment: Poly I:C-induced dry AMD model, ONL thickness; assay type: in vivo, mice
Source text: (§1) In this example, the mechanism of photoreceptor cell death in dry AMD was investigated using a polyinosinic:polycytidylic acid (Poly I:C)-induced dry AMD model (Yang et al. (2009) NEJM 359(14):1456-63). Poly I:C is a synthetic double-stranded RNA (dsRNA) analog that activates toll-like receptor 3 (TLR3) signaling (FIG. 20A). Furthermore, dsRNA are known to exist in the drusen of human AMD patients. As depicted in FIG. 20A, activation of the TLR3 signaling results in activation of RIP-1 kinase pathway. […] In the experiments described herein, 2-3 μl of Poly I:C (1 mg/ml) was injected into the subretinal space of the eye (e.g., approximately 2-3 μg of Poly I:C was administered to the eye) to induce AMD.
The thickness of the outer nuclear layer (ONL) was also determined in WT or RIP-3−/− mice at 14 days following treatment with poly I:C. Sections were randomly selected from either WT or RIP-3−/− mice following poly I:C treatment and the retina was photographed. The ONL thickness was measured in each section by masked observers.
(§2) To determine the effect of Nec-1 and a pan-caspase inhibitor in the treatment of AMD, TUNEL assay was performed to assess photoreceptor cell death in the poly I:C induced AMD model. […] The thickness of ONL was also measured.

photoreceptors [3] = experiment: TUNEL-positive cells after retinal detachment in RIP-3−/− mice; assay type: in vivo; conditions: three days after retinal detachment
Method: The role of RIP-3 in RIP-mediated programmed necrosis in photoreceptor loss after retinal detachment was investigated in RIP-3 knockout (RIP-3−/−) mice. TUNEL assays were used to measure the amount of apoptotic and necrotic cell death (Grasl-Kraupp et al., HEPTALOGY (1995) 21(5):1465-8). TUNEL and quantification of TUNEL positive cells in ONL were performed as described above by using the ApopTag Fluorescein In Situ Apoptosis Detection Kit (Millipore, Billerica, Mass.).

primary RPE cells = experiment: Viability of primary RPE cells treated with poly I:C (Cell Counting Kit-8); assay type: cell-based, mice; conditions: WT primary RPE cells, 5 μg/ml poly I:C for 48 hours
Method: As described in Example 11, primary RPE cells were extracted from the retina of mice and cultured in the presence of 5 μg/ml of poly I:C for 48 hours or with PBS. Cell viability was measured using Cell Counting Kit-8 (Dojindo Laboratories, Kumamoto, Japan). This assay is based on the cleavage of 2-(2-methoxy-4-nitrophenyl)-3-(4-nitrophenyl)-5-(2,4-disulfophenyl)-2H-tetrazolium, monosodium salt (WST-8) by the mitochondrial dehydrogenase enzyme to produce a formazan dye. After incubation with WST-8 for two hours at 37° C., absorbance was measured at 450 nm to determine cell viability.

photoreceptors [4] = experiment: TEM quantification of apoptotic and necrotic photoreceptor death after retinal detachment; assay type: in vivo; conditions: day three after retinal detachment, ONL
Method: The morphology of photoreceptors after retinal detachment was examined by transmission electron microscopy (TEM) and propidium iodide (PI) staining and the effect of treatment with Z-VAD and/or a Nec-1 compound of Formula I-C was analyzed.
TEM was performed as previously described (Hisatomi T et al. (2008). J. CLIN. INVEST. 118:2025-2038). […] Over 200 photoreceptors each eye were photographed and subjected to quantification of cell death modes in a masked fashion. Photoreceptors showing cellular shrinkage and nuclear condensation were defined as apoptotic cells, while photoreceptors associated with cellular and organelle swelling and discontinuities in nuclear and plasma membrane were defined as necrotic cells. The presence of electron-dense granular materials were reported to occur subsequent to both apoptotic and necrotic cell death and cells with these findings were labeled simply as end-stage cell death/unclassified (Hisatomi T et al. (2003) AM. J. PATHOL. 162:1869-1879; Erickson P A et al. (1983) INVEST. OPHTHALMOL. VIS. SCI. 24:927-942).
On day three after retinal detachment, photoreceptor death caused by apoptosis was almost twice that caused by necrosis in vehicle-treated retina (% apoptotic cells: 21.7±1.3%, necrotic cells: 13.3±1.0%, unclassified: 4.4±1.4%; FIGS. 7A and 7E).

photoreceptors [5] = experiment: Normalized ONL thickness ratio after retinal detachment in RIP-3−/− mice; conditions: five days after retinal detachment, RIP-3−/− mice
Method: TUNEL assays were used to measure the amount of apoptotic and necrotic cell death (Grasl-Kraupp et al., HEPTALOGY (1995) 21(5):1465-8). TUNEL and quantification of TUNEL positive cells in ONL were performed as described above by using the ApopTag Fluorescein In Situ Apoptosis Detection Kit (Millipore, Billerica, Mass.). The ratio of the ONL thickness to the thickness of neuroretina in the central area of the detached retina was determined by National Institutes of Health ImageJ software and standardized by that in the attached retina. The data are expressed as normalized ONL thickness ratio [(ONL/neuroretina thickness in detached retina)/(ONL/neuroretina thickness in attached retina)].

photoreceptors [6] = experiment: Normalized ONL thickness ratio after experimental retinal detachment; assay type: in vivo, rat; conditions: subretinal Z-VAD 300 μM and/or Nec-1 400 μM
Method: Photoreceptor death was also assessed by TUNEL analysis at three days after retinal detachment in retina treated with either vehicle, Nec-1, Z-VAD or Nec-1+Z-VAD. […] Nine sections for each eye specimen were randomly selected, and the central area of detached retina and the mid-peripheral region of attached retina were photographed. The ONL thickness ratio was measured at ten points in each section by masked observers. […] (GCL: ganglion cell layer, INL: inner nuclear layer. *, P<0.05. Scale bar, 100 μm). […]
TNF-α protein contents in rat retina were determined using ELISA Kit for rat TNF-α (Invitrogen, Carlsbad, Calif.). Goat anti-mouse/rat TNF-α blocking antibody was purchased from R&D Systems (Minneapolis, Minn.). The rat eyes were subretinally injected with 1% of sodium hyaluronate containing 0.1 mg/ml of anti-TNF-α antibody or control antibody.

photoreceptors [7] = experiment: Poly I:C-induced dry AMD model, TUNEL-positive cells in ONL; assay type: in vivo, mice; conditions: compared with vehicle
Source text: as §1
The thickness of the ONL was determined by the National Institutes of Health ImageJ software. […] Specifically, the number of TUNEL-positive cells in the RIP-3−/− mice treated with poly I:C was at least three fold less than control mice consistent with RIP-3 playing a role in mediating programmed necrosis in AMD (FIG. 22B).
as §2

Compound	neuroprotective effect / photoreceptor loss (TUNEL-positive photoreceptors and ONL thickness ratio) (photoreceptors [1]; day three after retinal detachment in rats, subretinal injection)	NF-κB p65 phosphorylation (NF-κB p65)	ONL thickness (photoreceptors [2])	number of TUNEL-positive cells (photoreceptors [3])	viability of RPE cells (primary RPE cells)	% apoptotic cells (TEM) (photoreceptors [4])	% necrotic cells (TEM) (photoreceptors [4])	% unclassified (end-stage cell death, TEM) (photoreceptors [4])	normalized ONL thickness ratio (photoreceptors [5])	number of TUNEL-positive cells in the ONL (photoreceptors [1]; day three after retinal detachment, subretinal Z-VAD 300 μM and/or Nec-1 400 μM at detachment)	normalized ONL thickness ratio (photoreceptors [6]; five days after retinal detachment)	normalized ONL thickness ratio (photoreceptors [6]; three days after retinal detachment)	number of TUNEL-positive cells in ONL (photoreceptors [7])
C[C@H](NC(=O)C(=O)Nc1ccccc1C(C)(C)C)C(=O)N[C@@H](CC(=O)O)C(=O)COc1c(F)c(F)cc(F)c1F [IDN-6556, (3-{2-[(2-tert-butyl-phenylaminooxalyl)-amino]-propionylamino}-4-oxo-5-(2,3,5,6-tetrafluoro-phenoxy)-pentanoic acid)]	did not show any neuroprotective effect												
CN1C(=O)NC(Cc2c[nH]c3c(Cl)cccc23)C1=O (stereo not shown) [Nec-1]		no effect	minimal effect	786.7±278.7 cells/mm^2	did not protect RPE cells	19.8±2.0%	13.1±1.4%	2.8±0.4%	0.761±0.049	1067.5±95.5 cells/mm^2	0.58±0.12	0.71±0.09	slight effect
